Laboratory results taken from patent EP0551200A1, “Protein phosphatase inhibitors for use in therapy” (priority 1992, dated 1993).

What was measured:
human fibroblasts = experiment: Early protein phosphorylation changes in 32P-labeled cells, two-dimensional gel electrophoresis with computerized densitometry; format: cell-based
Protocol: The cells were then subjected to analysis by high resolution two-dimensional gel electrophoresis combined with computerized imaging as previously described (Guy et al, J. Biol. Chem. 266, 14343-14352, 1991).
Radiolabeling of Cells and Cell Lysis - For labeling with [³²P]orthophosphate cells were plated onto 90 mm plastic tissue culture dishes and incubated for 3 days for the cells to become confluent. Immediately before labeling, the media was removed and the cells were washed twice with 5 ml of phosphate- and serum-free media (150 mM NaCl, 5 mM MgCl₂, 5 mM KCl, 1.6 mM CaCl₂, 0.5% glucose, 10 mM Tris, 0.1% bovine serum albumin, pH 7.4) before the addition of 1 mCi/ml of [³²P]orthophosphate in 3 ml of the same media to each plate. The plates were incubated at 37°C in a humidified CO₂ incubator for 2 h before the addition of the okadaic acid or other agonists at the concentrations and for the times indicated in the figures and table. The agonists were reconstituted in aqueous buffered solution or in dimethyl sulfoxide. […] At the completion of labeling the media was removed, and the cells were rapidly washed twice with 5 ml of ice-cold phosphate-buffered saline before being solubilised in 200 µl of cytosol extraction buffer (10mM Tris-HCl, 50 mM EDTA, 50 mM NaCl, 30 mM sodium pyrophosphate, 50 mM NaF, 100µM Na₃VO₄, 0.65% Nonidet P-40, 2 mM leupeptin, 2mM phenylmethylsulfonyl fluoride, pH 7.4). The lysate was collected and centrifuged for 5 min at 14,000 rpm. The pellet containing the nuclear fraction (including the cytoskeletal-membrane fractions) was separated from the cytosolic fraction. Both fractions were lyophilized.
Two-dimensional Gel Electrophoresis - The lyophilized fractions (each of approximately 12 µg) were subjected to isoelectric focusing for 18,000 V/h with pH 3-10 ampholytes using the Millipore Investigator two-dimensional electrophoresis system (Millipore). Following this, the first-dimension gel was extruded and equilibrated in SDS buffer for 2 min before being loaded onto the second dimension 12.5% SDS-polyacrylamide gel. The gel was fixed, dried and ³²P-labeled polypeptides were located by autoradiography by using intensifying screens at -80°C. For measurement of the pH profile, carbamylated protein standards (Pharmacia LKB Biotechnology Inc.) were co-run on duplicate gels and related to proteins of known pI on previously calibrated samples. Molecular weight marker proteins from Sigma were detected by Coomassie Blue staining and marked on the autoradiogram. ³²P-Labeled 27 hsp complex prepared from human fibroblasts heat shocked at 43°C for 30 min was also used as a marker.
Quantitative Determination of Protein Phosphorylation - The amount of protein phosphorylation on autoradiographs derived from cytosolic membrane or antibody-precipitated preparations containing equal amounts of protein were analyzed by computerized densitometry using a Visage 2000 Image analysis system (BioImage Products, Ann Arbor, MI, US).
The ³²P-labeled protein spots are resolved and detected by autoradiography of the high definition two-dimensional gel electrophoresis of cytosolic extracts prepared from ³²P-labeled human fibroblasts. The radioactive spots (each representing one or more phosphoproteins) are analyzed by computerized densitometry. Each spot is arbitrarily assigned a number. […]

Egr-1 mRNA = experiment: cells; format: cell-based, mouse
Protocol: 10 µg of RNA was applied to each lane and subjected to Northern blot analysis using an Egr-1 specific cDNA probe [1.6 kb Bgl II fragment (Sukhatme et al, Cell 53, 37-48, 1988)]. The same blots were rehybridized with actin or GADPH cDNA for normalizing the amount of RNA loaded. The blots were dried and autoradiographed. • (A). Time course of okadaic acid-induced Egr-1 and c-jun messages in primary human fibroblasts. Quiescent human fibroblasts were induced with 1 µM of okadaic acid for the time periods indicated. […] Time course of okadaic acid-induced Egr-1 message in Balb/c 3T3 cells. Quiescent Balb/c 3T3 cells were induced with okadaic acid (0.5µM) for the times indicated. • (C). Concentration dependent induction of Egr-1 message by okadaic acid in Balb/c 3T3 cells. Quiescent Balb/c 3T3 cells were induced with the indicated concentrations of okadaic acid for 1 h. As controls, different concentrations of DMSO were included. These corresponded to the amounts present in 0.25 µM okadaic acid (0.025% dimethyl sulphoxide (DMSO)) 0.5 µM okadaic acid (0.05% DMSO) and 1 µM okadaic acid (0.1%). • (D). Concentration dependent and time course induction of Egr-1 message by calyculin A. Quiescent Balb/c 3T3 cells were induced with different concentrations of calyculin A for 1 h. Northern analysis of this dose-dependent induction by calyculin A is shown on the left panel of the figure. […] Northern analysis of this time course induction by calyculin A is shown in the right panel of the figure. The same blot was rehybridized with pCMV-fos (Curran et al, Oncogene 2, 79-84, 1987) and pCMV-jun (Rauscher et al, 1988) shown in the middle panel. The blot was dried and autoradiographed.
Quiescent primary human fibroblasts were incubated with okadaic acid (OA) or TPA for 1 or 3 h. The concentrations of OA and TPA were 0.5 µM and 120 ng/ml, respectively. The concentration of 1-(5-isoquinolinylsulfonyl)-2-methylpiperazine dihydrochloride (H7) and N-(2-guanidinoethyl)-5-isoquinolinesulphonamide dihydrochloride (HA1004) used was 25 µM. The cells were pre-treated for 15 min with H7 or HA1004 before they were induced by OA or TPA for 1 or 3 h. Cells were harvested, RNA was isolated and subjected to Northern blot analysis. The blot was probed with Egr-1 or GADPH cDNA. • (B). As a positive control, primary human fibroblasts were treated with TPA (30 ng/ml) for 1 h (1st lane). The fibroblasts were also pre-treated with H7 (25 µM) or HA1004 (25 µM) for 15 min before treatment with TPA for 1 h (2nd and 3rd lanes respectively). […] The blot was probed with Egr-1 or actin cDNA. • (C). Quiescent Balb/c 3T3 cells were incubated with OA, TPA or dBt-cAMP for 1 h or pre-treated with H7 (25 µM) or HA1004 (25 µM) for 15 min and then incubated with each of the agonists for 1 h. Cells were harvested, RNA was isolated and subjected to Northern blot analysis. The concentration of each agonist used was as follows: lane a: 0.5 µM of OA, lane b: 100 ng/ml of TPA, lane c: 1 mM of dBt-cAMP, lane d: H7 plus OA (0.5 µM), lane e: H7 plus TPA (100 ng/ml), lane f: H7 plus dBt-cAMP (1 mM), lane g: HA1004 plus OA (0.5 µM), lane h: HA1004 plus TPA (100 ng.ml), lane i: HA1004 plus dBt-cAMP (1mM). The blot was probed with Egr-1 or GADPH cDNA.
Cell Cultures and Reagents. Human diploid foreskin fibroblasts were a gift from Dr J Vilcek (New York University, New York). The cells were grown in MEM supplemented with 10% fetal bovine serum (Hyclone, Logan, UT, US), Mouse Balb/c 3T3 cells were purchased from the American Type Culture Collection and grown in Dulbecco's MEM (DMEM) supplemented with 10% fetal bovine serum. Okadaic acid, calyculin A, H7, and HA1004 were purchased from Biomol Research Laboratories (Plymouth Meeting, PA, US). TPA, puromycin and dBt-cAMP were purchased from Sigma (St Louis, MO, US) 1 mM stock solutions of okadaic acid or calyculin A were solubilized in DMSO. [³²P]orthophosphate and other radioactive chemicals were purchased from Du Pont-New England Nuclear (Boston, MA). […]

mouse fibroblasts = experiment: Total cellular protein synthesis in mouse fibroblasts; format: cell-based; conditions: data not shown
Protocol: Quiescent human fibroblasts were stimulated with MEM containing 0.5 µM okadaic acid in the presence or absence of cycloheximide (10 µg/ml) for the times indicated in Fig. 11. […] Treatment of cells with cycloheximide enhanced the induction of Egr-1 mRNA by okadaic acid at 1.5 and 3 h (Fig. 11). Similarly puromycin, like cycloheximide, also "superinduces" the induction of the Egr-1 mRNA by okadaic acid (data not shown). […] However, in view that protein phosphatase 1 (PP1) and protein phosphatase 2A (PP2A) regulate enzymes associated with cellular protein synthesis (Cohen, Annu. Rev. Biochem. 58, 453-508, 1989) the effect of okadaic acid on protein synthesis in mouse and human fibroblasts was also measured. […] By then the Egr-1 mRNA message was already induced. A corollary to this is a comparison of the amount of ³⁵S-methionine labelled Egr-1 protein immunoprecipitated by R5232 antibodies from protein phosphatase inhibitor-treated and control cells. […] Thus, the induction of the Egr-1 gene by phosphatase inhibitors is unlikely to be mediated by their late inhibitory effects on cellular protein synthesis.

[1] = cytosolic fraction, first 15 min of ligand treatment

SMILES: C=C1[C@@H](O)[C@@H]2O[C@]3(CC[C@H](/C=C/[C@@H](C)[C@@H]4CC(C)=C[C@@]5(O[C@H](C[C@@](C)(O)C(=O)O)CC[C@H]5O)O4)O3)CC[C@H]2O[C@@H]1[C@@H](O)C[C@H](C)[C@H]1O[C@@]2(CCCCO2)CC[C@H]1C [okadaic acid]
- number of proteins dephosphorylated (human fibroblasts; [1]): six
- number of proteins with early phosphorylation changes (human fibroblasts; [1]): about 60 proteins
- identity of changes in early protein phosphorylation with those induced by TNF (human fibroblasts; cytosolic fraction, okadaic acid, 15 min, TNF 50 units/ml): about 95%
- changes in protein phosphorylation compared with TNF treatment (in words) (human fibroblasts; nuclear/cytoskeletal membrane fraction, 46-50 proteins, 15 min): almost identical changes
- time for which the Egr-1 mRNA level is maintained (Egr-1 mRNA; 0.5 µM): up to 7 h
- time of maximal induction of Egr-1 mRNA (Egr-1 mRNA; 0.5 µM): about 2 h
- time to induction of Egr-1 mRNA (Egr-1 mRNA; 0.5 µM): ≤ 1 h
- concentration inducing an equivalent fold increase in Egr-1 mRNA (Egr-1 mRNA; 1 h, calyculin A compared with okadaic acid): 1000 nM
- fold induction at 0.5 µM (Egr-1 mRNA; Mus musculus, BALB/c3T3, 0.5 µM, maintained level, read-out: Egr-1 mRNA level over control): 30 to 40
- effect on total cellular protein synthesis (in words) (mouse fibroblasts; 0.5 µM, first 2 h): little measurable effect
- inhibition at 0.5 µM (mouse fibroblasts; Mus musculus, Fibroblast, at 4 h): ≤ 50%
